Measured values reported in patent publication US12240844B2 (Voronoi, Inc., priority 2019, dated 2025).
pIC50: −log10 of the molar value.

Tests used:
LRRK2 = LRRK2 (Homo sapiens, UniProt Q5S007); test: LRRK2 enzyme inhibition, ADP-Glo kinase assay; assay type: biochemical; set-up: purchased Invitrogen PR8604B
Summary of the method: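 ADP-Glo luminescence read after 2 h at 25° C, 10 μM ATP, 25 ng purified human LRRK2 and […] substrate in Tris-HCl pH7.4 buffer with MgCl2, BSA, DTT. Twelve final concentrations, 50 μM down to 0.000001024 μM; IC50 (nM) from inhibition relative to untreated solvent control.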

human DYRK1A and Tau = test: Tau phosphorylation inhibition, ClariCELL Kinase Cell-Based Assay (Carnabio)
Protocol: Tau phosphorylation inhibitory efficacy was measured using the ClariCELL™ Kinase Cell-Based Assay service of Carnabio, located in the United States. The compounds are exposed to human embryonic kidney ([…]) cells transiently expressing human DYRK1A and Tau, and then the cells are lysed to release cellular proteins. At this time, the released Tau is captured on a plate, and the degree of phosphorylation is quantified by ELISA using an antibody specific for Tau phosphorylation.

MDA-MB-231 cell line = test: MDA-MB-231 cancer cell proliferation inhibition (Cell Titer-Glo); assay type: cell-based; conditions: Homo sapiens, MDA-MB-231 triple-negative breast cancer cell line, 72 hours
Protocol: (§1) In order to evaluate the cancer cell proliferation inhibitory activity of the compounds of the present invention, the following experiments were performed.
(§2) To evaluate the cancer cell proliferation inhibitory effect, the cell growth rate analysis was performed while culturing MDA-MB-231 cell line (Korean Cell Line Bank #30026) and MDA-MB-468 cell line as the triple-negative breast cancer cell line, and SHP-77 (ATCC #CRL-2195) as the small cell lung cancer cell line in DMEM (HyClone #SH30243) and RPMI medium (HyClone #SH3027.01), respectively. More specifically, the cell lines were each plated at 2000 cells/100 μl in each well of a 96-well flat-bottom plate (coming #3903), and then the example compounds having eleven concentrations which were diluted by ⅓ so that the final concentrations were 10.000000, 3.333333, 1.111111, 0.370370, 0.123457, 0.041152, 0.013717, 0.004572, 0.001524, 0.000508 and 0.000169 μM were treated. After 72 hours, 100 μl of Cell Titer-Glo (Promega G7573) was treated, incubated at RT for 10 minutes, and then luminescence was measured using a microplate reader. The measured luminescence degree was calculated as GI50 using Prism (version 8.2 GraphPad) software.
(§3) In the table below, the following designations were used for the evaluation of proliferation inhibitory activity.

SHP-77 = SHP-77 cancer cell proliferation inhibition (Cell Titer-Glo); assay type: cell-based; conditions: Homo sapiens, SHP77, SHP-77 small cell lung cancer cell line, 72 hours
Protocol: as §1, §2, §3

human GST-CLK1 (129-end) = molecular target: T1, human GST-CLK1 (129-end) (Homo sapiens, UniProt P49759); test: GST-CLK1 enzyme inhibition, ADP-Glo kinase assay; assay type: biochemical; conditions: ATP 10 uM
T1 construct: purified human GST-CLK1 (129-end, Signalchem) enzyme; GST; purchased Signalchem
T1 sequence (P49759 129-484 limits assumed): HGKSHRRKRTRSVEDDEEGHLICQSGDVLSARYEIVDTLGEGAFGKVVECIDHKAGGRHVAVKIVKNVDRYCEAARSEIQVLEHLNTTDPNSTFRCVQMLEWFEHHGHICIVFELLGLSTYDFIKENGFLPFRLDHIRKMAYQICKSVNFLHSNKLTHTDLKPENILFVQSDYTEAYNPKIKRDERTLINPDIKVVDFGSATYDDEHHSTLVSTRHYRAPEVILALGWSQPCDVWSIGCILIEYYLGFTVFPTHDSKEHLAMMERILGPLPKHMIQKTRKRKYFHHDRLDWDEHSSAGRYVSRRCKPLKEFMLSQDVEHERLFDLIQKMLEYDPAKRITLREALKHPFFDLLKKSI
Summary of the method: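 ADP formation was read by ADP-Glo luminescence after 1 h at 25° C with 3 ng human GST-CLK1 (129-end), substrate and 10 uM ATP in Tris pH 7.4 buffer containing MgCl2, BSA and DTT. Inhibition relative to untreated solvent control gave IC50 (nM), run in triplicate.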

[1] = molecular target: T2, human GST-DYRK1A (full length) (Homo sapiens, UniProt Q13627); test: GST-DYRK1A enzyme inhibition, ADP-Glo kinase assay; assay type: biochemical; conditions: read-out: DYRK1 IC50
T2 construct: purified human GST-DYRK1A (full length, Thermo scientifics) enzyme; GST; purchased Thermo scientifics
Summary of the method: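 ADP-Glo luminescence quantified kinase activity after a 1 h, 25° C reaction of 10 ng full-length GST-tagged human DYRK1A, substrate and 10 uM ATP in Tris-HCl buffer pH 7.4 with MgCl2, BSA and DTT. Triplicate IC50 values (nM) calculated relative to untreated solvent control.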

LRRK2 (G2019S) = LRRK2 (G2019S) (Homo sapiens, UniProt Q5S007, G2019S); test: LRRK2 G2019S enzyme inhibition, ADP-Glo kinase assay; assay type: biochemical; set-up: purchased SignalChem L10-12GG
Sequence of LRRK2 (G2019S) (Q5S007 970-2527 G2019S limits assumed): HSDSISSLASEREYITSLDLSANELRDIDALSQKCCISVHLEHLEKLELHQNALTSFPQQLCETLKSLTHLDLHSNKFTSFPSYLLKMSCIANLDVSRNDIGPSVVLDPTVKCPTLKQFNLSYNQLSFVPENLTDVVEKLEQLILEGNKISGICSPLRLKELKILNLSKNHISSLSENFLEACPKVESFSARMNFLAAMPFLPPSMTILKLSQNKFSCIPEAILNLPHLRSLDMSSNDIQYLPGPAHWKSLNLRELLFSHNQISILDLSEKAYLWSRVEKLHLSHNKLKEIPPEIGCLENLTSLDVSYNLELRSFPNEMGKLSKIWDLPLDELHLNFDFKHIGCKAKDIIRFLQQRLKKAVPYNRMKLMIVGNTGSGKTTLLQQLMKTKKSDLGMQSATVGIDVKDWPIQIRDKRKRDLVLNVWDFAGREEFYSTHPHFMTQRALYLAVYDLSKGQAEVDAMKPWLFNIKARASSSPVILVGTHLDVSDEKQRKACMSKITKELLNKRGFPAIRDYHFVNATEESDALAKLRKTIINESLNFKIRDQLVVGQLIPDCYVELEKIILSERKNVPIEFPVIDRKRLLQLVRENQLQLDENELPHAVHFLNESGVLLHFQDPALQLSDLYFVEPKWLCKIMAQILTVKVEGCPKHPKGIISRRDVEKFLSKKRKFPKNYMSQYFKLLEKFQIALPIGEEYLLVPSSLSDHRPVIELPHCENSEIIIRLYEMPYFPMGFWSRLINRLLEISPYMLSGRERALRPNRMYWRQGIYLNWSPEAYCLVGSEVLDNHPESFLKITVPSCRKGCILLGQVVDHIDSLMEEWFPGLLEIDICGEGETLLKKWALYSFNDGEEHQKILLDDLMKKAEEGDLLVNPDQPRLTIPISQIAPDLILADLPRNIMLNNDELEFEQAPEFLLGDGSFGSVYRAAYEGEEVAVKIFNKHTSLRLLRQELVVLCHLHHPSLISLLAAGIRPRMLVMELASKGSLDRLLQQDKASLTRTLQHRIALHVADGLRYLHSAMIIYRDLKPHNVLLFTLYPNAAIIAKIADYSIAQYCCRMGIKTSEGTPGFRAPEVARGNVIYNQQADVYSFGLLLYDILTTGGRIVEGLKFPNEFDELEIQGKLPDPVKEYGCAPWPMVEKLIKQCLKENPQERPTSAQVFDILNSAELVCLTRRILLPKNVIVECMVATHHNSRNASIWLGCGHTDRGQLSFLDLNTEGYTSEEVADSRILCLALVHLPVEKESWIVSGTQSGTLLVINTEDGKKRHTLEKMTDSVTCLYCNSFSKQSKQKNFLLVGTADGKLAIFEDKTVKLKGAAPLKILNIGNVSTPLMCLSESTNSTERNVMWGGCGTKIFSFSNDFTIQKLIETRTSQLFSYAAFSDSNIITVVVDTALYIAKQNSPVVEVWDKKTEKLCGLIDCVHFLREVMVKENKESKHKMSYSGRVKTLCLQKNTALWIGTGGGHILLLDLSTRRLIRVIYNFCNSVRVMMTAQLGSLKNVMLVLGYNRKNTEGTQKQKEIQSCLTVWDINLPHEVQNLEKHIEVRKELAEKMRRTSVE
Summary of the method: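 Activity read as ADP-Glo luminescence, normalized to untreated solvent control, with IC50 (nM) fitted over 12 final compound levels (top 50 μM). Reaction: 2 h, 25° C, human LRRK2 G2019S 16 ng, ATP 25 μM, substrate 0.2 μg, in Tris-HCl pH 7.4 with MgCl2, BSA and DTT.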

Sequence of LRRK2 (Q5S007 970-2527 limits assumed): as the sequence (Q5S007 970-2527 G2019S limits assumed) above, with S1050G counted along it

Row | Structure (SMILES) | pIC50 (LRRK2) | GI50 (MDA-MB-231 cell line) [nM] | GI50 (SHP-77) [nM] | pIC50 (human GST-CLK1 (129-end)) | pIC50 [1] | pIC50 (LRRK2 (G2019S)) | inhibition at 0.25 µM (human DYRK1A and Tau) [%] | inhibition at 0.5 µM (human DYRK1A and Tau) [%] | inhibition at 1 µM (human DYRK1A and Tau) [%]
1 | CCCNc1cc(Nc2ccc(S(=O)(=O)N3CCC(N4CCOCC4)CC3)cc2OC)nc2[nH]cc(C(F)(F)F)c12 [Example 40, N^6-(2-methoxy-4-((4-morpholinopiperidin-1-yl)sulfonyl)phenyl)-N^4-propyl-3-(trifluoromethyl)-1H-pyrrolo[2,3-b]pyridine-4,6-diamine] | 6.00 to 6.52 | 301 to 1000 | 301 to 1000 | 6.00 to 6.52 | > 7.00 | – | 9.2 | 15.2 | 38.7
2 | CNc1cc(Nc2ccc(S(=O)(=O)N3CCC(N4CCOCC4)CC3)cc2OC)nc2[nH]cc(C#N)c12 [Example 137, 6-((2-methoxy-4-((4-morpholinopiperidin-1-yl)sulfonyl)phenyl)amino)-4-(methylamino)-1H-pyrrolo[2,3-b]pyridine-3-carbonitrile] | > 7.00 | 51 to 100 | 51 to 100 | 6.00 to 6.52 | 6.00 to 6.52 | > 7.00 | – | – | –
3 | CCNc1cc(Nc2ccc(S(=O)(=O)N3CCC(N4CCOCC4)CC3)cc2OC)nc2[nH]cc(C#N)c12 [Example 138, 4-(ethylamino)-6-((2-methoxy-4-((4-morpholinopiperidin-1-yl)sulfonyl)phenyl)amino)-1H-pyrrolo[2,3-b]pyridine-3-carbonitrile] | > 7.00 | < 50 | < 50 | 6.00 to 6.52 | 6.52 to 7.00 | > 7.00 | – | – | –
4 | CCCNc1cc(Nc2ccc(S(=O)(=O)N3CCC(N4CCOCC4)CC3)cc2OC)nc2[nH]cc(C#N)c12 [Example 139, 6-((2-methoxy-4-((4-morpholinopiperidin-1-yl)sulfonyl)phenyl)amino)-4-(propylamino)-1H-pyrrolo[2,3-b]pyridine-3-carbonitrile] | > 7.00 | < 50 | < 50 | 6.00 to 6.52 | 6.00 to 6.52 | > 7.00 | – | – | –
5 | COc1cc(S(=O)(=O)N2CCOCC2)ccc1Nc1cc(NC2CCCCC2)c2c(C(F)(F)F)c[nH]c2n1 [Example 181, N^4-cyclohexyl-N^6-(2-methoxy-4-(morpholinosulfonyl)phenyl)-3-(trifluoromethyl)-1H-pyrrolo[2,3-b]pyridine-4,6-diamine] | 6.00 to 6.52 | 301 to 1000 | 301 to 1000 | 6.00 to 6.52 | 6.00 to 6.52 | 6.00 to 6.52 | – | – | –
6 | CCNc1cc(Nc2ccc(S(=O)(=O)N3CCC(N4CCOCC4)CC3)cc2OC)nc2[nH]cc(C(F)(F)F)c12 [Example 185, N^4-ethyl-N^6-(2-methoxy-4-((4-morpholinopiperidin-1-yl)sulfonyl)phenyl)-3-(trifluoromethyl)-1H-pyrrolo[2,3-b]pyridine-4,6-diamine] | > 7.00 | 51 to 100 | < 50 | 6.52 to 7.00 | 6.52 to 7.00 | > 7.00 | 22.9 | 37.7 | 56.2
7 | COc1cc(S(=O)(=O)N2CCC(N3CCOCC3)CC2)ccc1Nc1cc(NC2CC2)c2c(C(F)(F)F)c[nH]c2n1 [Example 188, N^4-cyclopropyl-N^6-(2-methoxy-4-((4-morpholinopiperidin-1-yl)sulfonyl)phenyl)-3-(trifluoromethyl)-1H-pyrrolo[2,3-b]pyridine-4,6-diamine 2,2,2-trifluoroacetate] | > 7.00 | 301 to 1000 | 101 to 300 | 6.00 to 6.52 | 6.00 to 6.52 | 6.52 to 7.00 | – | – | –
8 | COc1cc(S(=O)(=O)N2CCC(N3CCOCC3)CC2)ccc1Nc1cc(NCC(C)C)c2c(C(F)(F)F)c[nH]c2n1 [Example 191, N^4-isobutyl-N^6-(2-methoxy-4-((4-morpholinopiperidin-1-yl)sulfonyl)phenyl)-3-(trifluoromethyl)-1H-pyrrolo[2,3-b]pyridine-4,6-diamine] | 6.52 to 7.00 | 301 to 1000 | 301 to 1000 | 6.00 to 6.52 | 6.00 to 6.52 | 6.00 to 6.52 | – | – | –
9 | COCCNc1cc(Nc2ccc(S(=O)(=O)N3CCC(N4CCOCC4)CC3)cc2OC)nc2[nH]cc(C(F)(F)F)c12 [Example 197, N^6-(2-methoxy-4-((4-morpholinopiperidin-1-yl)sulfonyl)phenyl)-N^4-(2-methoxyethyl)-3-(trifluoromethyl)-1H-pyrrolo[2,3-b]pyridine-4,6-diamine] | > 7.00 | 301 to 1000 | 101 to 300 | > 7.00 | 6.52 to 7.00 | > 7.00 | – | – | –

More lines, main results first:

Row | pIC50 (LRRK2) | GI50 (MDA-MB-231 cell line) [nM] | GI50 (SHP-77) [nM] | pIC50 (human GST-CLK1 (129-end)) | pIC50 [1] | pIC50 (LRRK2 (G2019S)) | Structure (SMILES) | inhibition at 0.25 µM (human DYRK1A and Tau) [%] | inhibition at 0.5 µM (human DYRK1A and Tau) [%] | inhibition at 1 µM (human DYRK1A and Tau) [%]
10 | 6.00 to 6.52 | 301 to 1000 | 301 to 1000 | 6.00 to 6.52 | 6.00 to 6.52 | 6.00 to 6.52 | CCNc1cc(Nc2ccc(S(=O)(=O)N3CCOCC3)cc2OC)nc2[nH]cc(C(F)(F)F)c12 [Example 179, N^4-ethyl-N^6-(2-methoxy-4-(morpholinosulfonyl)phenyl)-3-(trifluoromethyl)-1H-pyrrolo[2,3-b]pyridine-4,6-diamine] | – | – | –
11 | 6.00 to 6.52 | 301 to 1000 | 301 to 1000 | 6.00 to 6.52 | 6.00 to 6.52 | 6.00 to 6.52 | COc1cc(S(=O)(=O)N2CCOCC2)ccc1Nc1cc(NC2CC2)c2c(C(F)(F)F)c[nH]c2n1 [Example 186, N^4-cyclopropyl-N^6-(2-methoxy-4-(morpholinosulfonyl)phenyl)-3-(trifluoromethyl)-1H-pyrrolo[2,3-b]pyridine-4,6-diamine] | – | – | –
12 | 6.00 to 6.52 | 301 to 1000 | 301 to 1000 | 6.00 to 6.52 | 6.00 to 6.52 | 6.00 to 6.52 | COc1cc(S(=O)(=O)N2CCOCC2)ccc1Nc1cc(NCC(C)C)c2c(C(F)(F)F)c[nH]c2n1 [Example 189, N^4-isobutyl-N^6-(2-methoxy-4-(morpholinosulfonyl)phenyl)-3-(trifluoromethyl)-1H-pyrrolo[2,3-b]pyridine-4,6-diamine] | – | – | –
13 | 6.52 to 7.00 | 301 to 1000 | 301 to 1000 | 6.00 to 6.52 | > 7.00 | 6.00 to 6.52 | COc1cc(S(=O)(=O)N2CCOCC2)ccc1Nc1cc(NCCS(C)(=O)=O)c2c(C(F)(F)F)c[nH]c2n1 [Example 192, N^6-(2-methoxy-4-(morpholinosulfonyl)phenyl)-N^4-(2-(methylsulfonyl)ethyl)-3-(trifluoromethyl)-1H-pyrrolo[2,3-b]pyridine-4,6-diamine] | – | – | –
14 | 6.00 to 6.52 | 301 to 1000 | 101 to 300 | 6.00 to 6.52 | 6.00 to 6.52 | 6.00 to 6.52 | COCCNc1cc(Nc2ccc(S(=O)(=O)N3CCOCC3)cc2OC)nc2[nH]cc(C(F)(F)F)c12 [Example 195, N^6-(2-methoxy-4-(morpholinosulfonyl)phenyl)-N^4-(2-methoxyethyl)-3-(trifluoromethyl)-1H-pyrrolo[2,3-b]pyridine-4,6-diamine] | – | – | –
15 | 6.00 to 6.52 | 301 to 1000 | 301 to 1000 | 6.00 to 6.52 | 6.00 to 6.52 | 6.00 to 6.52 | CCCNc1cc(Nc2ccc(S(=O)(=O)N3CCOCC3)cc2OC)nc2[nH]cc(C(F)(F)F)c12 [Example 199, N^6-(2-methoxy-4-(morpholinosulfonyl)phenyl)-N^4-propyl-3-(trifluoromethyl)-1H-pyrrolo[2,3-b]pyridine-4,6-diamine] | – | – | –
